Counter-ions that a name gives are not always drawn. Like-named read-outs stand apart in the source and are kept apart here.
What was measured:
[1] = pharmacological study: stimulation or protection of cerebral functions; assay type: in vivo; conditions: thorough pharmacological study
Protocol: The stimulating or protecting activities have been shown particularly by the test of the mnesic retention of exploratory activity carried out in accordance with the following method: in an ACTIMETRE APELAB apparatus (BOISSIER and SIMON, Arch. Inter. Pharmacodyn. 158, 212, (1965), the exploratory activity of SWISS-WEBSTER male mice was measured for 5 minutes, then the animals were given an intraperitoneal injection or oral administration of the derivatives of formula (I), the salts thereof or of physiological serum. After a week, the exploratory activity of the treated animals is again measured and the effect of the mnesic retention is measured by an habituation, i.e., by a statistically significant reduction (t of STUDENT in paired groups) of the exploratory activity.

[2] = cited from earlier work; for pharmacological activity as previously considered: up to the present, in the pharmacological field, earlier literature; for vasodilatory activity: earlier patents and literature
[3] = approximate acute toxicity (method of MILLER and TAINTER); conditions: in vivo; for mortality: read-out: lethality
Protocol: The approximate acute toxicity is determined according to the method described by MILLER and TAINTER in Proc. Soc. Exp. Biol. Med. 57, 261, (1944).

[4] = test of the mnesic retention of exploratory activity (habituation); assay type: in vivo, SWISS-WEBSTER male mice; conditions: Mus musculus, ip, 168 h, read-out: % of the diminution of the exploratory activity; for inhibition in vivo at 10 mg/kg: dose 10 mg/kg i.p.
[5] = dose 3 mg/kg i.p., retest after one week, mice

SMILES: COc1cc(/C=C\C(=O)N2CCN(CC(=O)N3CCCC3)CC2)cc(OC)c1OC [Code Number 72, cis 1-(3,4,5-trimethoxy)cinnamoyl 4-pyrrolidinocarbonylmethyl)piperazine, oxalate]
- activity in the stimulation or protection of cerebral functions [1]: important activities in the stimulation or protection of cerebral functions
- pharmacological activity as previously considered ([2]; listed as Ib): inactive

SMILES: COc1ccc(CCN(C)C(=O)CN2CCN(C(=O)/C=C/c3cc(OC)c(OC)c(OC)c3)CC2)cc1OC [compound 68]
- LD50 ([3]; iv): 200 mg/kg
- inhibition in vivo at 10 mg/kg ([4]; retest after one week, mice): 15.8%

SMILES: COc1cc(/C=C/C(=O)N2CCN(CC(=O)N3CCCCC3)CC2)cc(OC)c1OC [compound 66]
- LD50 ([3]; po): 2250 mg/kg
- inhibition in vivo at 3 mg/kg [4, 5]: 35.2%

SMILES: COc1cc(/C=C/C(=O)N2CCN(CC(=O)N3CCCCCCC3)CC2)cc(OC)c1OC [compound 67]
- LD50 ([3]; iv): 225 mg/kg
- inhibition in vivo at 3 mg/kg [4, 5]: 26.4%

SMILES: CCOC(=O)CN1CCN(C(=O)/C=C/c2cc(OC)c(OC)c(OC)c2)CC1
- vasodilatory activity [2]: peripheral and coronary vasodilators

SMILES: COc1cc(CCC(=O)N2CCN(CC(=O)NC(C)C)CC2)cc(OC)c1OC [compound 70]
- LD50 ([3]; po): 2000 mg/kg
- mortality ([3]; po, 2000 mg/kg p.o.): 0%
- inhibition in vivo at 30 mg/kg ([4]; dose 30 mg/kg i.p., retest after one week, mice): 16.2%

SMILES: COc1cc(/C=C\C(=O)N2CCN(CC(=O)N3CCCC3)CC2)cc(OC)c1OC [drawing 13]
- pharmacological activity as previously considered [2]: non-active

SMILES: COc1cc(/C=C\C(=O)N2CCN(CC(=O)N3CCCC3)CC2)cc(OC)c1OC [compound 72]
- inhibition in vivo at 3 mg/kg [4]: 21%

SMILES: COc1cc(/C=C/C(=O)N2CCN(CC(=O)N3CCCC3)CC2)cc(OC)c1OC
- vasodilatory activity [2]: peripheral and coronary vasodilators

SMILES: COc1cc(/C=C/C(=O)N2CCN(CC(=O)NC(C)C)CC2)cc(OC)c1O [drawing 16]
- vasodilatory activity [2]: coronary vasodilator

SMILES: COc1cc(/C=C/C(=O)N2CCN(CC(=O)NC(C)C)CC2)cc(OC)c1O [compound 69]
- LD50 ([3]; po): 2000 mg/kg
- mortality ([3]; po, 2000 mg/kg p.o.): 0%
- inhibition in vivo at 3 mg/kg [4, 5]: 23.8%

SMILES: COc1cc(/C=C/C(=O)N2CCN(CC(=O)O)CC2)cc(OC)c1OC [Code Number 71, trans 1-(3,4,5-trimethoxy)cinnamoyl 4-hydroxycarbonylmethyl piperazine, hydrochloride]
- activity in the stimulation or protection of cerebral functions [1]: important activities in the stimulation or protection of cerebral functions
- pharmacological activity as previously considered ([2]; listed as Ia, hydrochloride): inactive

SMILES: COc1cc(/C=C/C(=O)N2CCN(CC(=O)NC(C)C)CC2)cc(OC)c1OC [compound 65]
- LD50 ([3]; iv): 475 mg/kg
- inhibition in vivo at 10 mg/kg ([4]; retest after one week, mice): 17.9%

SMILES: COc1cc(/C=C/C(=O)N2CCN(CC(=O)O)CC2)cc(OC)c1OC [compound 71]
- LD50 ([3]; po): 1000 mg/kg
- mortality ([3]; po, 1000 mg/kg p.o.): 0%
- inhibition in vivo at 1 mg/kg ([4]; dose 1 mg/kg i.p., retest after one week, mice): 31.9%

SMILES: COc1cc(CCC(=O)N2CCN(CC(=O)NC(C)C)CC2)cc(OC)c1OC [drawing 15]
- vasodilatory activity [2]: peripheral and coronary vasodilators

SMILES: COc1cc(/C=C/C(=O)N2CCN(CC(=O)O)CC2)cc(OC)c1OC [drawing 11]
- pharmacological activity as previously considered [2]: non-active

From patent US4500531A, “Therapeutical use of (1-cinnamoyl or 1-phenethylcarbonyl) piperazine derivatives” (priority 1982, dated 1985)
